Test results as given in patent publication US20250281465A1, “MOLECULES THAT ENHANCE EXTRACELLULAR VESICLE RELEASE” (priority 2022, published 2025).
“Also recorded” adds a separate entry of the source.

How the values were obtained:
mBMDC = assay: Ca2+ add-back assay in mBMDC; format: cell-based, mouse; conditions: for intracellular Ca^2+ after adding Ca^2+ in the medium: Ca^2+ 1.8 mM added at 15 minutes; for intracellular Ca^2+ level without extracellular Ca^2+: Fura-8-loaded mBMDC, 2 μM, 10 μM, 15 minutes, absence of extracellular Ca^2+
Procedure: (§1) FIGS. 1A-1D. Intracellular Ca^2+ influx screening of 84 HTS hit candidate compounds. (A) THP-1 cells were loaded with the ratiometric Ca^2+ indicator, Fura-2, and treated with lonomycin (ION, 1 μM), Thapsigargin (1 μM), or 84 hit candidate compounds (10 μM) for 25 minutes. Data are presented as the area under the curve (AUG) of OD340/380 ratios corresponding to the intracellular Ca^2+ kinetics. The baseline-subtracted AUG was calculated using GraphPad Prism (GraphPad Software, San Diego, CA). (B) Ca^2+ mobilization by compound #634. mBMDCs were loaded with the ratiometric Ca^2+ indicator, Fura-8, and treated with ION (1 μM), or #634 (2 and 10 μM) for 25 minutes. The dashed line indicates the timing of compounds added. The data shown are representative of three independent experiments showing similar results. (C) Ca^2+ add-back assay. Fura-8-loaded mBMDC were treated with ION (1 μM), or compound #634 (2 μM, 10 μM) for 15 minutes in the absence of extracellular Ca^2+, and then Ca^2+ (final 1.8 mM) was added at 15 minutes. Data shown are representative of three independent experiments showing similar results. (D) C57BL/6 mice (n=5/group) were intramuscularly immunized with ovalbumin (OVA, 20 μg/mouse) adjuvanted with compound #634 (200 nmol/mouse), or Veh (10% DMSO) on days 0 and 21 and bled on day 28. OVA-specific IgGI and IgG2c levels in sera were determined by ELISA. **p<0.01, ***p<0.001, ns (not significant) by KruskalWallis tests with Dunn's post hoc test vs. Veh.
FIGS. 18A-18C. Compound 634 induces intracellular Ca^2+ levels in mBMDCs. (A) Intracellular Ca^2+ influx levels of the top eight compounds. THP-1 cells were loaded with the ratiometric Ca^2+ indicator, Fura-2, and treated with ION (1 μM), TG (1 μM), or test compounds (5 μM). The time-response pattern of intracellular Ca^2+ levels was recorded for 25 minutes. AUC of OD340/380 ratios corresponds to the intracellular Ca^2+ kinetics, and the baseline-subtracted AUC was calculated by GraphPad Prism. […] (B) Ca^2+ mobilization by compounds 456 and 634 in mBMDCs. mBMDCs were loaded with Fura-8 and treated with ION (1 μM), or 634 and 456 (10 μM) for 25 minutes. The dashed line indicates the timing of compounds added. The data shown are representative of three independent experiments showing similar results. (C) Ca^2+ add-back assay. Fura-8-loaded mBMDC were treated with ION (1 μM) or compound 634 (2 μM, 10 μM) for 15 minutes in the absence of extracellular Ca^2+, and then Ca^2+ (final 1.8 mM) was added at 15 minutes. The data shown are representative of three independent experiments showing similar results.

mBMDCs [1] = assay: EV release from mBMDCs (differential ultracentrifugation, MRPS); conditions: for number of EV particles released in the culture supernatant: 46-48 h, vs Veh
mBMDCs [2] = assay: Intracellular Ca2+ influx (Fura-2/Fura-8) in mBMDCs; format: cell-based, mouse; conditions: for intracellular Ca^2+ influx in mBMDCs (Fura-8): 2 and 10 μM, 25 minutes
THP-1 cells = assay: Intracellular Ca2+ influx screening (Fura-2) in THP-1 cells; format: cell-based, human
Procedure: as §1
FIGS. 18A-18C. Compound 634 induces intracellular Ca^2+ levels in mBMDCs. […] The time-response pattern of intracellular Ca^2+ levels was recorded for 25 minutes. AUC of OD340/380 ratios corresponds to the intracellular Ca^2+ kinetics, and the baseline-subtracted AUC was calculated by GraphPad Prism. […]
FIGS. 24A-24B. […] The time-response pattern of intracellular Ca^2+ levels was recorded with a plate reader for 25 minutes. (A) The AUC of OD340/380 ratios corresponds to the intracellular Ca^2+ kinetics and the baseline-subtracted AUC was calculated by GraphPad Prism (FIG. 36). […]

mBMDCs [3] = assay: Costimulatory molecule expression on mBMDCs (flow cytometry); format: cell-based, mouse; conditions: 634 10 μM, ION 1 μM, MPLA 1 μg/mL overnight, vs Veh
Procedure: FIGS. 26A-26D. Flow cytometric analysis for costimulatory molecules on mBMDCs. For costimulatory molecules on mBMDCs, mBMDCs (10^6 cells/mL) were incubated with 634 (10 μM), ION (1 μM), and MPLA (1 μg/mL) for 20-24 hours. 0.5% DMSO was used as a vehicle. After removing the supernatant, cells were washed with the stain buffer and incubated with anti-mouse CD16/32 antibody for blocking FcR. Cells were stained with an antibody cocktail with anti-CD86 (A), anti-CD80 (B), anti-MHC class II (C), and anti-CD40 (D) antibodies for 30 minutes at 4° C. Cells were then washed and stained with DAPI (4′,6-diamino-2phenylindole) for 10 minutes at room temperature to exclude dead cells (DAPI^high) from the analysis. Data were acquired using MACSQuant Analyzer 10 (Miltenyi Biotec, Germany) and analyzed with FlowJo (version 10.8.1).
mBMDCs (10^5 cells/200 μL/well) were treated with a test compound (10 μM) or Veh (0.5% DMSO) overnight and then the costimulatory molecule expression on mBMDCs was evaluated using flow cytometry. The cells were stained with antibodies for CD11c, CD80, CD83, CD86, CD40, and MHC class II. Dead cells (DAPI high) were excluded from the analysis. Percent positive population of CD80, CD83, CD86, CD40, or MHC class II in the gated CD11c population were analyzed.
Costimulatory Molecule Expression Analysis. mBMDCs (10^6 cells/mL) were incubated with 10 μM compound, 1 μM lonomycin and 1 μg/mL MPLA for 20 to 24 hours. 0.5% DMSO was used as vehicle. Cells were incubated with anti-mouse CD16/32 antibody for blocking FcR and stained with anti-CD11c, anti-CD40, […], anti-CD83, […], or anti-MHC class II antibodies for 30 minutes at 4° C. Cells were stained with 4′,6-diamino-2-phenylindole (DAPI) for 10 minutes at RT. Data were acquired using MACSQuant Analyzer 10 (Miltenyi Biotec, Germany) and analyzed with FlowJo (version 10.8.1, Becton Dickinson, Ashland, OR)).

Compound	intracellular Ca^2+ after adding Ca^2+ in the medium (mBMDC)	intracellular Ca^2+ level without extracellular Ca^2+ (mBMDC)	release of particles of diameter less than 150 nm (mBMDCs [1]; 10 μM)	number of EV particles released in the culture supernatant (mBMDCs [1]; 10 μM)	intracellular Ca^2+ influx in mBMDCs (Fura-8) (mBMDCs [2])	time intracellular Ca^2+ increase was sustained (mBMDCs [2]; Fura-8 assay)	intracellular Ca^2+ increase (Fura-2 assay) (THP-1 cells; hit candidate compounds 10 μM, 25 minutes, vs vehicle control (DMSO))	CD80 expression on mBMDCs (mBMDCs [3])	CD86 expression on mBMDCs (mBMDCs [3])	increase of the number of EVs released compared to Veh control (mBMDCs [1]; 634 10 μM, 48 hours, p<0.05) [%]	intracellular Ca^2+ influx by 634 and its SAR analogs (Fura-2) (mBMDCs [2]; 10 μM, vs Veh 0.5% DMSO / #634)	intracellular Ca^2+ (relative AUC of OD340/380) (THP-1 cells; validation assay, 5 μM, vs Veh 0.5% DMSO)
CCOC(=O)c1c(NS(=O)(=O)c2cccc3c2N=S=N3)sc(C)c1C [#634, ethyl 2-(benzo[c][1,2,5]thiadiazole-4-sulfonamido)-4,5-dimethylthiophene-3-carboxylate]	intracellular Ca^2+ influx was restored	did not increase intracellular Ca^2+ levels without extracellular Ca^2+	significantly enhanced	increased the number of EV particles released	rapidly increased intracellular Ca^2+	at least 25 min	higher intracellular Ca^2+ increase than vehicle control					
CCOC(=O)c1c(NS(=O)(=O)c2cccc3nsnc23)sc(C)c1C [compound 634, Ethyl 2-(benzo[c][1,2,5]thiadiazole-4-sulfonamido)-4,5-dimethylthiophene-3-carboxylate]	intracellular Ca^2+ levels were restored	did not change the intracellular Ca^2+ concentration		significantly increased the number of EVs released	induced Ca^2+ influx in mBMDCs; also recorded: comparable to ionomycin			increased CD86 and CD80 expression on mBMDCs	increased CD86 and CD80 expression on mBMDCs	45	Ca^2+ influx positive	significantly increased intracellular Ca^2+
